Assay results as given in ChEMBL document CHEMBL4190336, “Discovery of a Novel Series of 7-Azaindole Scaffold Derivatives as PI3K Inhibitors with Potent Activity” (ACS Med Chem Lett, 2017).

Tests used:
[1] = target: PI3-kinase p110-alpha/p85-alpha (Homo sapiens, UniProt P42336); assay: Inhibition of recombinant full length N-terminal His-tagged human PI3K p110alpha/p85alpha expressed in baculovirus expression system using PIP2/PS as substrate after 1 hr by ADP-Glo luminescence assay
[2] = target: Phosphatidylinositol 4,5-bisphosphate 3-kinase catalytic subunit beta isoform (Homo sapiens, UniProt P42338); assay: Inhibition of recombinant human PI3K p110beta using PIP2/PS as substrate after 1 hr by ADP-Glo luminescence assay
Chain of Phosphatidylinositol 4,5-bisphosphate 3-kinase catalytic subunit beta isoform (P42338 whole entry, canonical isoform): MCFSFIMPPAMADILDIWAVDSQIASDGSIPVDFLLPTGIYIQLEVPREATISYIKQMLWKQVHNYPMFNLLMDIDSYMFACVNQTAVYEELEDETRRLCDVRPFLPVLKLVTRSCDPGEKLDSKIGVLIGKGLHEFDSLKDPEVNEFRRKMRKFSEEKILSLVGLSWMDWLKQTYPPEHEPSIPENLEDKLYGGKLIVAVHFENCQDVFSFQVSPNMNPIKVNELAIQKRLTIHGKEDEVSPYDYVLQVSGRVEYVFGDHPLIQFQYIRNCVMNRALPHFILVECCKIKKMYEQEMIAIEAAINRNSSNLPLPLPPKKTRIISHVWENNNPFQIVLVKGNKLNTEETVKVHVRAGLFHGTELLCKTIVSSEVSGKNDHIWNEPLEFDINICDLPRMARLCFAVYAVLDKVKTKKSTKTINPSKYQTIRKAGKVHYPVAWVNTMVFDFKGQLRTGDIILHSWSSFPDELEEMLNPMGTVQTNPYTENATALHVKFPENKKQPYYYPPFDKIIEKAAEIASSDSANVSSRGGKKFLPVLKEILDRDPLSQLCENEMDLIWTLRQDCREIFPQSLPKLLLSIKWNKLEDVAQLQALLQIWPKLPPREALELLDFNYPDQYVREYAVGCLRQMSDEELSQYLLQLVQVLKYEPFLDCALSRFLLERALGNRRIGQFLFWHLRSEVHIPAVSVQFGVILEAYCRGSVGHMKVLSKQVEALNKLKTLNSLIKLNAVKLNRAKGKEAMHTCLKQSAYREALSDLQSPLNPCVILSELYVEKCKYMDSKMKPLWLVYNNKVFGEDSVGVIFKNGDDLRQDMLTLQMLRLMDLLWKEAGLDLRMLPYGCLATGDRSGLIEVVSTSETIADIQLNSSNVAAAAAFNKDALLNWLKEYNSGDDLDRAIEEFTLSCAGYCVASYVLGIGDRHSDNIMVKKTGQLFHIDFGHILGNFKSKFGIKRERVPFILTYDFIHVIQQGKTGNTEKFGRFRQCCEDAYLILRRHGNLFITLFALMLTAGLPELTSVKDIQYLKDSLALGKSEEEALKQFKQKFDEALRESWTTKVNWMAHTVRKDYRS

[3] = target: PI3-kinase p110-delta/p85-alpha (Homo sapiens, UniProt O00329); assay: Inhibition of recombinant human full length His-tagged PI3K p110delta/p85alpha expressed in baculovirus expression system using PIP2/PS as substrate after 1 hr by ADP-Glo luminescence assay
Chain of PI3-kinase p110-delta/p85-alpha (P27986 whole entry): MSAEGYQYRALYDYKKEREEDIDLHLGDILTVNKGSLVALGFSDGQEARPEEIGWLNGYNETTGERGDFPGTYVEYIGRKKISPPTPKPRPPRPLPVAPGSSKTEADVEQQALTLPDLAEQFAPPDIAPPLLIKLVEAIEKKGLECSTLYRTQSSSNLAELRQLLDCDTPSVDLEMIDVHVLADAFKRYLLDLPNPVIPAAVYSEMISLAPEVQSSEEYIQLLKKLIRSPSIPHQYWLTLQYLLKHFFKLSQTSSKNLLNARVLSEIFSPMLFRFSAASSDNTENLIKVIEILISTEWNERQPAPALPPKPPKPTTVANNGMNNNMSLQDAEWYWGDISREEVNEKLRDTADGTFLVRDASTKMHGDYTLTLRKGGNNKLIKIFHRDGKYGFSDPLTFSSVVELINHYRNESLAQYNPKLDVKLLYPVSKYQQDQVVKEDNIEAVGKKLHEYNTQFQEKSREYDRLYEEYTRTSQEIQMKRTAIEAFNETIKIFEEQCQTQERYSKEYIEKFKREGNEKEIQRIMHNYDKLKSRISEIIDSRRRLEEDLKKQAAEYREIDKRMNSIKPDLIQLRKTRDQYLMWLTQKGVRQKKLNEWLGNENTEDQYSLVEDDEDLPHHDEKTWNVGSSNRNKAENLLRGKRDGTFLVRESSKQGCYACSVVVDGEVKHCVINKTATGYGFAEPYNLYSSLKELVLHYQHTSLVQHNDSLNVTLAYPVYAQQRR
Chain of PI3-kinase p110-delta/p85-alpha (O00329 whole entry): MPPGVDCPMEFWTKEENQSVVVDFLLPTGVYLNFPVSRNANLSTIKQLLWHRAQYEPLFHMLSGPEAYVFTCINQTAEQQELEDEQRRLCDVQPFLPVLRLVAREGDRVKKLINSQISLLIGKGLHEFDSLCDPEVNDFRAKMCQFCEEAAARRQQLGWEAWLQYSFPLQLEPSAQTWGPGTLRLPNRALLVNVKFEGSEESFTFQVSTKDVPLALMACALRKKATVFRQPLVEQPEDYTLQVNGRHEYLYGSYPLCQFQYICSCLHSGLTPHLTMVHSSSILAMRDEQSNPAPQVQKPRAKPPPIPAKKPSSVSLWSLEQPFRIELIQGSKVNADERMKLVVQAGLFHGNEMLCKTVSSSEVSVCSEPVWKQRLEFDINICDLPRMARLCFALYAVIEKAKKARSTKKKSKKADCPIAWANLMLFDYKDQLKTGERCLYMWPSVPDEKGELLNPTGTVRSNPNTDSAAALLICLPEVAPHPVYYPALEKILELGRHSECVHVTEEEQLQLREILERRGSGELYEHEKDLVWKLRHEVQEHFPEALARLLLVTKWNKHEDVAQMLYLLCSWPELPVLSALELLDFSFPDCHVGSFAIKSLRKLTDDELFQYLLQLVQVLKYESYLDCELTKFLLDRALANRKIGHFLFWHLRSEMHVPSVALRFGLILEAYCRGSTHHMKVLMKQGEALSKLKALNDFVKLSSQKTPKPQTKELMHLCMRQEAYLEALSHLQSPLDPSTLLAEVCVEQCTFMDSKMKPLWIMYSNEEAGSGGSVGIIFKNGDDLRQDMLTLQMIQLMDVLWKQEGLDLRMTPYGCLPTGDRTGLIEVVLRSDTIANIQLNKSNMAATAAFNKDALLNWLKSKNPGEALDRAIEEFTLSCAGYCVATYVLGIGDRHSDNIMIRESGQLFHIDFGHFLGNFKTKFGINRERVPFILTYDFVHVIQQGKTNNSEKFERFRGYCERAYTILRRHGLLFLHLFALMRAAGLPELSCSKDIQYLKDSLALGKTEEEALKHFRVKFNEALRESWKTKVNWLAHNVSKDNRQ

[4] = system: NCI-H460; assay: Growth inhibition of human NCI-H460 cells after 72 hrs by SRB assay; type: functional; details: NCI-H460, 72 h
[5] = system: MCF7; assay: Growth inhibition of human MCF7 cells after 72 hrs by SRB assay; type: functional; details: MCF7, 72 h
[6] = system: T47D; assay: Growth inhibition of human T47D cells after 72 hrs by SRB assay; type: functional
[7] = system: U-87 MG; assay: Growth inhibition of human U87MG cells after 72 hrs by SRB assay; type: functional, U-87MG ATCC
[8] = system: KARPAS-422; assay: Growth inhibition of human KARPAS422 cells by CCK8 assay; type: functional
[9] = system: Pfeiffer; assay: Growth inhibition of human Pfeiffer cells by CCK8 assay; type: functional
[10] = target: Phosphatidylinositol 4,5-bisphosphate 3-kinase catalytic subunit gamma isoform (Homo sapiens, UniProt P48736)
Chain of Phosphatidylinositol 4,5-bisphosphate 3-kinase catalytic subunit gamma isoform (P48736 whole entry, canonical isoform): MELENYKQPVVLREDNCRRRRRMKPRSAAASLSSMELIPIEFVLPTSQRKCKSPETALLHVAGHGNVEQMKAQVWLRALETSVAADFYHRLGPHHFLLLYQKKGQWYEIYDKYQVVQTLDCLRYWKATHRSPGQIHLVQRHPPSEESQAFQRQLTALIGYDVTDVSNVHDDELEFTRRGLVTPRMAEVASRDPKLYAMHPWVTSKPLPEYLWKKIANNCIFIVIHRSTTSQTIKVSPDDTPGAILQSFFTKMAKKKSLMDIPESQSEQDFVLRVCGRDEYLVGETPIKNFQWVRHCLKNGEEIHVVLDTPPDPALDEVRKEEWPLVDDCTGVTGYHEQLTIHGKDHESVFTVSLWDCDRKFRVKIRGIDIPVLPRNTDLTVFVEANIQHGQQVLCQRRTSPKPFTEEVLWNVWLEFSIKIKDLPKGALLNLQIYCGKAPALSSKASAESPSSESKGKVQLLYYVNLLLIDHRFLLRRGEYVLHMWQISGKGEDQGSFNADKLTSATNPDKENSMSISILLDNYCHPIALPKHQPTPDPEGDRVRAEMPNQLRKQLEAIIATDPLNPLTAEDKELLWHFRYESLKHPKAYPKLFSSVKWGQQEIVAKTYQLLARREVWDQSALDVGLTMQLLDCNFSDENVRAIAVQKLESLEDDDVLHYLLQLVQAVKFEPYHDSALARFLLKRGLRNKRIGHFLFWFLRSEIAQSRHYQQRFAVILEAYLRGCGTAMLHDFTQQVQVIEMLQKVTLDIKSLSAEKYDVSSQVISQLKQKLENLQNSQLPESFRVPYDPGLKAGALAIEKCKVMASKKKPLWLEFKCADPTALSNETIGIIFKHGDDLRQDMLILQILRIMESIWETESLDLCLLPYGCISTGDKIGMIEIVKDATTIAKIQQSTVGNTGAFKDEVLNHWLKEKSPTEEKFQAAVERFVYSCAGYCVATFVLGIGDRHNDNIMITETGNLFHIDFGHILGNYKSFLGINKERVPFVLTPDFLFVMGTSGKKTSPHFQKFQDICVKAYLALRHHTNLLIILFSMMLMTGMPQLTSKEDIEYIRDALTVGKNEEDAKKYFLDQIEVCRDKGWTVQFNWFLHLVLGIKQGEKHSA
Description: Inhibition of recombinant full length His-tagged human PI3K p110gamma expressed in baculovirus expression system using PIP2/PS as substrate after 1 hr by ADP-Glo luminescence assay

Chain of PI3-kinase p110-alpha/p85-alpha (P27986 whole entry, canonical isoform): as the sequence (P27986 whole entry) above
Chain of PI3-kinase p110-alpha/p85-alpha (P42336 whole entry, canonical isoform): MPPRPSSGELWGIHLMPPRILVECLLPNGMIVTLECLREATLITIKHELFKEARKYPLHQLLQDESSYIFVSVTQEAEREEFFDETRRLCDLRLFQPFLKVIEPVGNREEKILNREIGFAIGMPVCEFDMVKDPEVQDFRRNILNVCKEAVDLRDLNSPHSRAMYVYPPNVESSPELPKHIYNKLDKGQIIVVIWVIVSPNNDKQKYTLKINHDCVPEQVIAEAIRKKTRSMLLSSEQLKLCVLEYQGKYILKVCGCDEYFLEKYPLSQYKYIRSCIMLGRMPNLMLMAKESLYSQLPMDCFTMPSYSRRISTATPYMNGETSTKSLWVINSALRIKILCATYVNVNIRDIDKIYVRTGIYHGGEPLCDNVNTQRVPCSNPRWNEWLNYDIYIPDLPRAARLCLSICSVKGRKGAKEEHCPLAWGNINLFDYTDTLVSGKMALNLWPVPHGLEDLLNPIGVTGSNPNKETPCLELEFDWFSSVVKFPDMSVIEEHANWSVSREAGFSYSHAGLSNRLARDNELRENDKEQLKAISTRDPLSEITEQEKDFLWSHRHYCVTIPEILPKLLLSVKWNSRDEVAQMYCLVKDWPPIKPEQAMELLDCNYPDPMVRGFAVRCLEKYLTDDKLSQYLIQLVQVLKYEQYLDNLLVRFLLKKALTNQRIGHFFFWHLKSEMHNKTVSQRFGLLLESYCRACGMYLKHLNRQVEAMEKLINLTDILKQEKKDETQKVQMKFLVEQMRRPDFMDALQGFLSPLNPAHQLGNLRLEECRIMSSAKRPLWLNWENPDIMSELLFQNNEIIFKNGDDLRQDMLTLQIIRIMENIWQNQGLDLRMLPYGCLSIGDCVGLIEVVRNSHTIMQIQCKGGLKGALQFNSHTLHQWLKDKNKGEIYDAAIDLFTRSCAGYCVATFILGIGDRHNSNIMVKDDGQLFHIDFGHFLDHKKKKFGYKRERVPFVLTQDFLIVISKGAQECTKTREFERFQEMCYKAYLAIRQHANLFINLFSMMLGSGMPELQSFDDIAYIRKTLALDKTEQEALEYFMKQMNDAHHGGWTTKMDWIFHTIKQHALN

Structure (SMILES) | IC50 [1] | IC50 [2] | IC50 [3] | GI50 [4] | GI50 [5] | GI50 [6] | GI50 [7] | GI50 [8] | GI50 [9] | IC50 [10]
O=S(=O)(Nc1cc(-c2cnc3[nH]cc(-c4ccncc4)c3c2)cnc1Cl)c1ccc(F)cc1 | 1 nM | 2 nM | 0.4 nM | 6.19 µM | 2910 nM | 1300 nM | > 10 µM | 370 nM | 410 nM | 0.7 nM
O=S(=O)(Nc1cc(-c2cnc3[nH]c(-c4ccccc4)cc3c2)cnc1Cl)c1ccccc1 |  |  |  |  |  |  |  |  |  | 268 nM
CC(=O)Nc1ccc(-c2cnc(Cl)c(NS(=O)(=O)c3ccccc3)c2)cn1 |  |  |  |  |  |  |  |  |  | 420 nM
Nc1ccc(-c2cncc(NS(=O)(=O)c3ccccc3)c2)cn1 |  |  |  |  |  |  |  |  |  | 1590 nM
O=C(Nc1ccc(-c2cnc(Cl)c(NS(=O)(=O)c3ccccc3)c2)cn1)C1CC1 |  |  |  |  |  |  |  |  |  | 445 nM
O=S(=O)(Nc1cc(-c2cnc3[nH]cc(-c4ccncc4)c3c2)cnc1Cl)c1ccccc1F | 1 nM | 3 nM | 0.5 nM | > 10 µM | 2500 nM | 1790 nM | 7.13 µM | 350 nM | 290 nM | 0.7 nM
CCc1cc2cc(-c3cnc(Cl)c(NS(=O)(=O)c4ccccc4)c3)cnc2[nH]1 |  |  |  |  |  |  |  |  |  | 155 nM
O=S(=O)(Nc1cc(-c2cnc3[nH]nc(-c4ccncc4)c3c2)cnc1Cl)c1ccccc1 | 1 nM | 4 nM | 0.7 nM | 2.5 µM | 690 nM | 520 nM | 3.12 µM | 170 nM | 150 nM | 7 nM
COc1ncc(-c2ccc(N)nc2)cc1NS(=O)(=O)c1ccccc1 |  |  |  |  |  |  |  |  |  | 2060 nM
O=S(=O)(Nc1cc(-c2cnc3[nH]ccc3c2)cnc1Cl)c1ccccc1 | 35 nM | 35 nM | 1 nM | > 10 µM | > 10000 nM | > 10000 nM | > 10 µM | 6710 nM | 5500 nM | 97 nM
CCNc1ccc(-c2cnc(Cl)c(NS(=O)(=O)c3ccccc3)c2)cn1 |  |  |  |  |  |  |  |  |  | 1490 nM
Cc1cc2cc(-c3cnc(Cl)c(NS(=O)(=O)c4ccccc4)c3)cnc2[nH]1 |  |  |  |  |  |  |  |  |  | 63 nM
Nc1ccc(-c2cnc(Cl)c(NS(=O)(=O)c3ccccc3)c2)cn1 |  |  |  |  |  |  |  |  |  | 375 nM
O=S(=O)(Nc1cc(-c2cnc3[nH]cc(-c4ccncc4)c3c2)cnc1Cl)c1ccccc1 | 1 nM | 2 nM | 0.6 nM | 3.9 µM | 2140 nM | 1500 nM | 8.95 µM | 120 nM | 100 nM | 0.5 nM
CS(=O)(=O)Nc1ccc(-c2cnc(Cl)c(NS(=O)(=O)c3ccccc3)c2)cn1 |  |  |  |  |  |  |  |  |  | 4750 nM
Cn1c(=O)n(-c2ccc(C(C)(C)C#N)cc2)c2c3cc(-c4cnc5ccccc5c4)ccc3ncc21 [DACTOLISIB] |  |  |  | 0.61 µM | 60 nM | 300 nM | 0.28 µM |  |  | 
O=S(=O)(Nc1cc(-c2cnc3[nH]ncc3c2)cnc1Cl)c1ccccc1 | 51 nM | 29 nM | 1 nM | 7.61 µM | 7400 nM | 4400 nM | 8.94 µM | 1090 nM | 1160 nM | 37 nM
Nc1ccc(-c2cnc(N)c(NS(=O)(=O)c3ccccc3)c2)cn1 |  |  |  |  |  |  |  |  |  | 2970 nM
O=S(=O)(Nc1cc(-c2cnc3[nH]nc(-c4ccccc4)c3c2)cnc1Cl)c1ccccc1 | 2 nM | 6 nM | 1 nM | 8.65 µM | 7370 nM | 4190 nM | > 10 µM | 1230 nM | 1300 nM | 17 nM
CC[C@H](Nc1ncnc2[nH]cnc12)c1nc2cccc(F)c2c(=O)n1-c1ccccc1 [IDELALISIB] |  |  |  |  |  |  |  | 680 nM | 740 nM | 
Cc1ncc(-c2ccc(N)nc2)cc1NS(=O)(=O)c1ccccc1 |  |  |  |  |  |  |  |  |  | 381 nM
O=S(=O)(Nc1cc(-c2cnc3[nH]cc(-c4ccccc4)c3c2)cnc1Cl)c1ccccc1 | 2 nM | 39 nM | 1 nM | > 10 µM | > 10000 nM | 7720 nM | > 10 µM | 1830 nM | 1520 nM | 15 nM
CN(C)C(=O)Nc1ccc(-c2cnc(Cl)c(NS(=O)(=O)c3ccccc3)c2)cn1 |  |  |  |  |  |  |  |  |  | 68 nM
